According to US5603943A, “Nasally administrable compositions” (Dott Research Laboratory, priority 1994, dated 1997):
“And” between values parts separate entries of the source, which are not always exact repeats. Equal values may be shown once.

Legend:
[1] = Salmon calcitonin blood concentration, nasal powder with hydroxyapatite (Test Example 2); assay type: in vivo, healthy male adults (human); conditions: for Concentration of salmon calcitonin in the blood: nasal 200 MRC (IU)/25 mg, individual cases No. 1-3 in order
Description: (§1) A nasally administrable composition in powdery form was prepared by formulating salmon calcitonin as a physiologically active peptide at the rate of 200 MRC (IU) per 25 mg with hydroxyapatite as a carrier having a mean particle size ranging from 40 to 45 μm.
(§2) The resulting composition was nasally administered once at a dose of 25 mg to three healthy male adults and the blood (2.5 ml) was collected from each of the tested adults prior to administration and then at 5, 10, 15, 20, 30, 45, 60, 90, 120 and 180 minutes after administration. The concentration of the salmon calcitonin in each of the collected blood samples was assayed with a standard RIA assay kit.

[2] = Salmon calcitonin blood concentration, nasal powder with hydroxyapatite (Test Example 3); assay type: in vivo, healthy male adults (human); conditions: for Concentration of salmon calcitonin in the blood: nasal 200 MRC (IU)/25 mg, individual cases No. 4-7 in order
Description: as §1
as §2, with “four” for “three”

[3] = Salmon calcitonin blood concentration, nasal powder with magnesium stearate (Test Example 4); assay type: in vivo, healthy male adults (human)
Description: A nasally administrable composition in powdery form was prepared by formulating salmon calcitonin as a physiologically active peptide at the rate of 200 MRC (IU) per 25 mg with magnesium stearate as a carrier having a mean particle size ranging from 40 to 45 μm.
as §2, with “in each -of the collected” for “in each of the collected”

[4] = Salmon calcitonin blood concentration, nasal powder with calcium carbonate (Test Example 5); assay type: in vivo, healthy male adults (human)
Description: A nasally administrable composition in powdery form was prepared by formulating salmon calcitonin as a physiologically active peptide at the rate of 200 MRC (IU) per 25 mg with calcium carbonate as a carrier having a mean particle size ranging from 40 to 45 μm.
as §2

[5] = Salmon calcitonin blood concentration, nasal powder with aluminum hydroxide (Test Example 6); assay type: in vivo, healthy male adults (human); conditions: for Concentration of salmon calcitonin in the blood: nasal 200 MRC (IU)/25 mg, individual cases No. 14-16 in order
Description: A nasally administrable composition in powdery form was prepared by formulating salmon calcitonin as a physiologically active peptide at the rate of 200 MRC (IU) per 25 mg with aluminum hydroxide as a carrier having a mean particle size ranging from 40 to 45 μm.
as §2

[6] = Nasal absorption, clinical effect and irritation (general statement); assay type: in vivo
[7] = relative, among calcitonins; cited from earlier work
[8] = powder in specific carrier, nasal route

salmon calcitonin
Concentration of salmon calcitonin in the blood ([1]; 0 min (predose)): ~ 7 pg/ml
Concentration of salmon calcitonin in the blood ([1]; 5 min): 55.50 pg/mL and 14.05 pg/mL and 76.25 pg/mL
Concentration of salmon calcitonin in the blood ([1]; 10 min): 93.05 pg/mL and 44.12 pg/mL and 107.67 pg/mL
Concentration of salmon calcitonin in the blood ([1]; 15 min): 49.84 pg/mL and 77.03 pg/mL and 118.26 pg/mL
Concentration of salmon calcitonin in the blood ([1]; 20 min): 65.95 pg/mL and 59.36 pg/mL and 95.07 pg/mL
Concentration of salmon calcitonin in the blood ([1]; 30 min): 21.08 pg/mL and 47.69 pg/mL and 102.78 pg/mL
Concentration of salmon calcitonin in the blood ([1]; 45 min): 12.54 pg/mL and 24.68 pg/mL and 60.68 pg/mL
Concentration of salmon calcitonin in the blood ([1]; 60 min): 13.50 pg/mL and 19.43 pg/mL and 42.97 pg/mL
Concentration of salmon calcitonin in the blood ([1]; 90 min): 7.92 pg/ml and ~ 7 pg/ml and 21.78 pg/ml
Concentration of salmon calcitonin in the blood ([1]; 120 min): ~ 7 pg/ml and 12.75 pg/ml
Concentration of salmon calcitonin in the blood ([1]; 180 min): ~ 7 pg/ml
absorption into the blood ([1]; nasal): high degree of absorption
absorption through the nasal cavity [2]: high extent of absorption
Concentration of salmon calcitonin in the blood ([2]; 0 min (predose)): ~ 7 pg/ml
Concentration of salmon calcitonin in the blood ([2]; 5 min): 65.30 pg/mL and 66.02 pg/mL and 57.83 pg/mL and 72.72 pg/mL
Concentration of salmon calcitonin in the blood ([2]; 10 min): 98.88 pg/mL and 95.22 pg/mL and 83.75 pg/mL and 130.21 pg/mL
Concentration of salmon calcitonin in the blood ([2]; 15 min): 96.96 pg/mL and 106.69 pg/mL and 91.55 pg/mL and 139.54 pg/mL
Concentration of salmon calcitonin in the blood ([2]; 20 min): 59.91 pg/mL and 102.60 pg/mL and 63.17 pg/mL and 122.29 pg/mL
Concentration of salmon calcitonin in the blood ([2]; 30 min): 46.96 pg/mL and 71.13 pg/mL and 48.09 pg/mL and 91.38 pg/mL
Concentration of salmon calcitonin in the blood ([2]; 45 min): 23.89 pg/mL and 57.42 pg/mL and 30.95 pg/mL and 45.91 pg/mL
Concentration of salmon calcitonin in the blood ([2]; 60 min): 14.31 pg/mL and 33.21 pg/mL and 19.56 pg/mL and 15.62 pg/mL
Concentration of salmon calcitonin in the blood ([2]; 90 min): ~ 7 pg/ml (2×) and 13.06 pg/ml and 10.39 pg/ml
Concentration of salmon calcitonin in the blood ([2]; 120 min): ~ 7 pg/ml and 8.76 pg/ml
Concentration of salmon calcitonin in the blood ([2]; 180 min): ~ 7 pg/ml
time of maximum concentration ([2]; nasal): reaching maximum in a short time after administration
absorption [3]: high extent of absorption
absorption [4]: high extent of absorption
Concentration of salmon calcitonin in the blood ([5]; 0 min (predose)): ~ 7 pg/ml
Concentration of salmon calcitonin in the blood ([5]; 5 min): 19.75 pg/mL and 26.41 pg/mL and 32.23 pg/mL
Concentration of salmon calcitonin in the blood ([5]; 10 min): 19.35 pg/mL and 34.82 pg/mL and 24.85 pg/mL
Concentration of salmon calcitonin in the blood ([5]; 15 min): 14.97 pg/mL and 31.66 pg/mL and 18.68 pg/mL
Concentration of salmon calcitonin in the blood ([5]; 20 min): ~ 7 pg/ml and 37.63 pg/ml and 12.92 pg/ml
Concentration of salmon calcitonin in the blood ([5]; 30 min): 9.15 pg/ml and 24.79 pg/ml and ~ 7 pg/ml
Concentration of salmon calcitonin in the blood ([5]; 45 min): ~ 8 pg/ml and 13.70 pg/ml and ~ 7 pg/ml
Concentration of salmon calcitonin in the blood ([5]; 60 min): ~ 7 pg/ml and 12.12 pg/ml
absorption ([5]; nasal): high extent of absorption
concentration in the blood versus injection ([5]; nasal): simlar to that obtainable by injection
bioavailability and concentration in blood ([6]; homogeneously dispersed in and adsorbed onto the carrier): high both in bioavailability and concentration in blood
absorption into the body [6, 8]: well absorbed into the body
clinical effects [6, 8]: high clinical effects
stability [7]: relatively low in stability
